Results taken from patent US8192962B2, “Processes for detecting toxic substances” (Daikin Industries, Ltd., priority 2001, dated 2012).

Test system: Metabolism protein genes
Assay: DNA chip mRNA expression in yeast, metabolism protein genes (Table 7)
Format: cell-based, Saccharomyces cerevisiae S288C
Experimental: Yeast (Saccharomyces cerevisiae S288C (α SUC2mal mel gap2 CUP1)) were incubated at 25° C. on YPD medium (yeast extract 1%, polypepton 2%, glucose 2%). One of toxic chemical substances was added to the cells at logarithmic growth phase, and the cells were further incubated for two hours. Cells were cultured without any chemical substance in the same condition, and were used as control. Concentrations of the chemical substances were defined to inhibit the growth of the yeast but not lead to death.
After completion of the incubation, the culture was centrifuged to collect the cells. To the cells, sodium acetate buffer (50 mM sodium acetate, 10 mM EDTA, 1% SDS) was added, and the mixture was shaken at 65° C. for five minutes, followed by returning to room temperature, and obtaining the supernatant, of which the procedures were repeated two times. To the supernatant, ½ amount of a solution of phenol/chloroform was added, and the mixture was centrifuged to give a supernatant, which was added with an equal amount of chloroform, and the mixture was centrifuged to give a supernatant. To the supernatant, an equal amount of isopropanol containing 0.3 M sodium acetate was added, and the mixture was allowed to stand at room temperature for 30 minutes, after which the mixture was centrifuged to give a sediment of the whole RNAs. Seventy % ethanol was added to the sediment, and the mixture was again centrifuged to give a sediment, which was then dried and dissolved in water. mRNA was isolated from the whole RNAs as followings. In view of the fact that a poly A chain is attached to the 3′ terminus of mRNA, a polynucleotide having a poly T structure which was immobilized on the surface of latex beads was used to trap the mRNA, and then the mRNA was washed and eluted with spine column (Oligotex-dT30<Super>mRNA Purification Kit, Takara). Reverse transcription of the mRNA was conducted with a reverse transcriptase (Super Script II Reverse Transcriptase; catalogue No. 18064-014, GibcoBRL) using fluorescence-labeled nucleotides to give cDNAs that were introduced with Cy3-dUTP or Cy5-dUTP during the reverse transcription.
The labeled cDNAs were dissolved in TE buffer (10mM Tris-HCl/1 mM EDTA, pH8.0), and the solution was dropped on the DNA chip containing the whole genes of yeast (DNA Chip Research Inc. Japan) so that the cDNAs were hybridized on the DNA chip at 65° C. for over 12 hours. The fluoresces intensity of the DNA chip was read with a scanner, and the ratio relative to the fluorescence intensity resulting from the absence of chemical substance was estimated as the following, which is shown in Tables 1 to 9: […]

[Cl][Hg][Cl] [(3), HgCl2]
The level of expressed mRNA in the presence of chemical substance/The level of expressed mRNA in the absence of chemical substance (yeast gene YAL012W): 10.4
The level of expressed mRNA in the presence of chemical substance/The level of expressed mRNA in the absence of chemical substance (yeast gene YAL038W): 3.0
level of expressed mRNA in the presence/in the absence of chemical substance (yeast gene YBR003W): 1.0
level of expressed mRNA in the presence/in the absence of chemical substance (yeast gene YBR011C): 2.5
level of expressed mRNA in the presence/in the absence of chemical substance (yeast gene YBR020W): 1.9
The level of expressed mRNA in the presence of chemical substance/The level of expressed mRNA in the absence of chemical substance (yeast gene YBR023C): 1.3
The level of expressed mRNA in the presence of chemical substance/The level of expressed mRNA in the absence of chemical substance (yeast gene YBR029C): 1.8
The level of expressed mRNA in the presence of chemical substance/The level of expressed mRNA in the absence of chemical substance (yeast gene YBR183W): 2.0
The level of expressed mRNA in the presence of chemical substance/The level of expressed mRNA in the absence of chemical substance (yeast gene YBR222C): 1.3
The level of expressed mRNA in the presence of chemical substance/The level of expressed mRNA in the absence of chemical substance (yeast gene YBR256C): 0.6
The level of expressed mRNA in the presence of chemical substance/The level of expressed mRNA in the absence of chemical substance (yeast gene YCL009C): 2.0
The level of expressed mRNA in the presence of chemical substance/The level of expressed mRNA in the absence of chemical substance (yeast gene YCL064C): 0.8
level of expressed mRNA in the presence/in the absence of chemical substance (yeast gene YCR010C): 1.6
level of expressed mRNA in the presence/in the absence of chemical substance (yeast gene YCR034W): 2.5
The level of expressed mRNA in the presence of chemical substance/The level of expressed mRNA in the absence of chemical substance (yeast gene YCR048W): 1.0
The level of expressed mRNA in the presence of chemical substance/The level of expressed mRNA in the absence of chemical substance (yeast gene YCR098C): 1.7
The level of expressed mRNA in the presence of chemical substance/The level of expressed mRNA in the absence of chemical substance (yeast gene YDR019C): 1.7
level of expressed mRNA in the presence/in the absence of chemical substance (yeast gene YDR050C): 2.3
level of expressed mRNA in the presence/in the absence of chemical substance (yeast gene YDR073W): 0.7
level of expressed mRNA in the presence/in the absence of chemical substance (yeast gene YDR123C): 0.4
level of expressed mRNA in the presence/in the absence of chemical substance (yeast gene YDR178W): 3.4
level of expressed mRNA in the presence/in the absence of chemical substance (yeast gene YDR277C): 1.0
level of expressed mRNA in the presence/in the absence of chemical substance (yeast gene YDR284C): 3.0
level of expressed mRNA in the presence/in the absence of chemical substance (yeast gene YDR345C): 5.6
The level of expressed mRNA in the presence of chemical substance/The level of expressed mRNA in the absence of chemical substance (yeast gene YDR380W): 0.8
level of expressed mRNA in the presence/in the absence of chemical substance (yeast gene YDR400W): 2.2
level of expressed mRNA in the presence/in the absence of chemical substance (yeast gene YDR408C): 1.4
level of expressed mRNA in the presence/in the absence of chemical substance (yeast gene YDR483W): 1.3
The level of expressed mRNA in the presence of chemical substance/The level of expressed mRNA in the absence of chemical substance (yeast gene YDR497C): 0.6
The level of expressed mRNA in the presence of chemical substance/The level of expressed mRNA in the absence of chemical substance (yeast gene YDR502C): 2.4
The level of expressed mRNA in the presence of chemical substance/The level of expressed mRNA in the absence of chemical substance (yeast gene YDR516C): 7.8
level of expressed mRNA in the presence/in the absence of chemical substance (yeast gene YEL063C): 2.4
level of expressed mRNA in the presence/in the absence of chemical substance (yeast gene YER015W): 1.1
The level of expressed mRNA in the presence of chemical substance/The level of expressed mRNA in the absence of chemical substance (yeast gene YER026C): 3.3
The level of expressed mRNA in the presence of chemical substance/The level of expressed mRNA in the absence of chemical substance (yeast gene YER053C): 1.9
The level of expressed mRNA in the presence of chemical substance/The level of expressed mRNA in the absence of chemical substance (yeast gene YER069W): 3.3
level of expressed mRNA in the presence/in the absence of chemical substance (yeast gene YER081W): 2.7
The level of expressed mRNA in the presence of chemical substance/The level of expressed mRNA in the absence of chemical substance (yeast gene YER096W): 2.0
level of expressed mRNA in the presence/in the absence of chemical substance (yeast gene YER120W): 2.5
The level of expressed mRNA in the presence of chemical substance/The level of expressed mRNA in the absence of chemical substance (yeast gene YER178W): 3.6
level of expressed mRNA in the presence/in the absence of chemical substance (yeast gene YFL011W): 3.7
The level of expressed mRNA in the presence of chemical substance/The level of expressed mRNA in the absence of chemical substance (yeast gene YFL014W): 5.7
The level of expressed mRNA in the presence of chemical substance/The level of expressed mRNA in the absence of chemical substance (yeast gene YFL030W): 3.1
The level of expressed mRNA in the presence of chemical substance/The level of expressed mRNA in the absence of chemical substance (yeast gene YFL031W): 2.1
The level of expressed mRNA in the presence of chemical substance/The level of expressed mRNA in the absence of chemical substance (yeast gene YFL056C): 2.3
The level of expressed mRNA in the presence of chemical substance/The level of expressed mRNA in the absence of chemical substance (yeast gene YFL057C): 1.5
The level of expressed mRNA in the presence of chemical substance/The level of expressed mRNA in the absence of chemical substance (yeast gene YFR047C): 2.7
level of expressed mRNA in the presence/in the absence of chemical substance (yeast gene YGL012W): 3.0
The level of expressed mRNA in the presence of chemical substance/The level of expressed mRNA in the absence of chemical substance (yeast gene YGL022W): 1.4
level of expressed mRNA in the presence/in the absence of chemical substance (yeast gene YGL115W): 1.2
The level of expressed mRNA in the presence of chemical substance/The level of expressed mRNA in the absence of chemical substance (yeast gene YGL126W): 1.4
level of expressed mRNA in the presence/in the absence of chemical substance (yeast gene YGL205W): 0.7
The level of expressed mRNA in the presence of chemical substance/The level of expressed mRNA in the absence of chemical substance (yeast gene YGL209W): 1.1
The level of expressed mRNA in the presence of chemical substance/The level of expressed mRNA in the absence of chemical substance (yeast gene YGL248W): 0.9
The level of expressed mRNA in the presence of chemical substance/The level of expressed mRNA in the absence of chemical substance (yeast gene YGR037C): 2.2
The level of expressed mRNA in the presence of chemical substance/The level of expressed mRNA in the absence of chemical substance (yeast gene YGR055W): 12.0
level of expressed mRNA in the presence/in the absence of chemical substance (yeast gene YGR096W): 1.1
level of expressed mRNA in the presence/in the absence of chemical substance (yeast gene YGR191W): 1.6
The level of expressed mRNA in the presence of chemical substance/The level of expressed mRNA in the absence of chemical substance (yeast gene YGR194C): 1.3
level of expressed mRNA in the presence/in the absence of chemical substance (yeast gene YGR204W): 2.7
The level of expressed mRNA in the presence of chemical substance/The level of expressed mRNA in the absence of chemical substance (yeast gene YGR256W): 2.3
The level of expressed mRNA in the presence of chemical substance/The level of expressed mRNA in the absence of chemical substance (yeast gene YGR282C): 4.6
level of expressed mRNA in the presence/in the absence of chemical substance (yeast gene YGR288W): 1.0
level of expressed mRNA in the presence/in the absence of chemical substance (yeast gene YHR025W): 2.4
The level of expressed mRNA in the presence of chemical substance/The level of expressed mRNA in the absence of chemical substance (yeast gene YHR111W): 0.8
level of expressed mRNA in the presence/in the absence of chemical substance (yeast gene YHR123W): 1.8
The level of expressed mRNA in the presence of chemical substance/The level of expressed mRNA in the absence of chemical substance (yeast gene YHR137W): 2.4
The level of expressed mRNA in the presence of chemical substance/The level of expressed mRNA in the absence of chemical substance (yeast gene YHR174W): 3.3
The level of expressed mRNA in the presence of chemical substance/The level of expressed mRNA in the absence of chemical substance (yeast gene YHR176W): 1.1
level of expressed mRNA in the presence/in the absence of chemical substance (yeast gene YHR210C): 0.6
level of expressed mRNA in the presence/in the absence of chemical substance (yeast gene YIL006W): 1.4
The level of expressed mRNA in the presence of chemical substance/The level of expressed mRNA in the absence of chemical substance (yeast gene YIL045W): 1.9
The level of expressed mRNA in the presence of chemical substance/The level of expressed mRNA in the absence of chemical substance (yeast gene YIL107C): 1.1
The level of expressed mRNA in the presence of chemical substance/The level of expressed mRNA in the absence of chemical substance (yeast gene YIL154C): 1.9
The level of expressed mRNA in the presence of chemical substance/The level of expressed mRNA in the absence of chemical substance (yeast gene YIL155C): 1.4
The level of expressed mRNA in the presence of chemical substance/The level of expressed mRNA in the absence of chemical substance (yeast gene YIR034C): 2.5
The level of expressed mRNA in the presence of chemical substance/The level of expressed mRNA in the absence of chemical substance (yeast gene YIR036C): 2.6
The level of expressed mRNA in the presence of chemical substance/The level of expressed mRNA in the absence of chemical substance (yeast gene YJL031C): 0.5
The level of expressed mRNA in the presence of chemical substance/The level of expressed mRNA in the absence of chemical substance (yeast gene YJL068C): 3.4
The level of expressed mRNA in the presence of chemical substance/The level of expressed mRNA in the absence of chemical substance (yeast gene YJL088W): 2.2
The level of expressed mRNA in the presence of chemical substance/The level of expressed mRNA in the absence of chemical substance (yeast gene YJL099W): 0.3
level of expressed mRNA in the presence/in the absence of chemical substance (yeast gene YJL121C): 1.9
level of expressed mRNA in the presence/in the absence of chemical substance (yeast gene YJL167W): 1.4
The level of expressed mRNA in the presence of chemical substance/The level of expressed mRNA in the absence of chemical substance (yeast gene YJL172W): 1.8
level of expressed mRNA in the presence/in the absence of chemical substance (yeast gene YJL216C): 2.2
The level of expressed mRNA in the presence of chemical substance/The level of expressed mRNA in the absence of chemical substance (yeast gene YJL219W): 3.1
level of expressed mRNA in the presence/in the absence of chemical substance (yeast gene YJR077C): 2.0
The level of expressed mRNA in the presence of chemical substance/The level of expressed mRNA in the absence of chemical substance (yeast gene YJR137C): 4.6
level of expressed mRNA in the presence/in the absence of chemical substance (yeast gene YJR143C): 2.1
The level of expressed mRNA in the presence of chemical substance/The level of expressed mRNA in the absence of chemical substance (yeast gene YJR148W): 2.0
